Assays:
BALB/c mice = experiment: Plasma EPO in mice IV injected with 3 μg TransIT-complexed EPO mRNA (ELISA); assay type: in vivo
Experimental: To confirm in vitro data, female BALB/c mice from Jackson Laboratory (Bar Harbor, ME, USA) at the age of eight to ten weeks were used for in vivo experiment in accordance with federal policies on animal research (Ethics approval number: G18-12-027). Mice (n=3/group) were injected intravenously (i.v.) with 3 μg TransIT-complexed (Mirus Bio) EPO mRNAs in a final volume of 200 μL Dulbecco's modified Eagle medium (DMEM). Mice used as controls were injected with TransIT-reagent diluted in DMEM but without RNA. Mice were injected with EPO mRNA complexed with TransIT-reagent and EPO levels in plasma were measured using ELISA (FIG. 8A). Hematocrit was measured from 18 μl of blood that was collected at the indicated times using centrifugation in Drummond microcaps glass capillary tubes (20 μl volume, Merck, Germany) as described (20) (FIG. 8B). After determination of the hematocrit, capillary tubes were snapped open, and the plasma was collected to measure EPO levels and analyzed for mouse Erythropoietin DuoSet ELISA kit (R&D Systems) according to the manufacturer's instructions. […] EPO RNA containing m1Ψ translated two-fold more than U-containing mRNA at each time points (FIG. 8A). Both compound I′-1 and compound I′-6 are suitable for translation of the encoded protein and each cap analog can be used for synthesizing of non-replicating functional mRNAs (FIG. 8A, 8B).
(§1) In each in vivo experiment in order to measure the translational efficiency and to determine the functionality of EPO mRNA capped with I′-1, I′-2, I′-3, I′-5, I′-6, I′-9, I′-12, I′-13, I′-16, CC114, and CC413 in vivo, female BALB/c mice from Jackson Laboratory (Bar Harbor, ME, USA) at the age of eight to ten weeks were used for in accordance with federal policies on animal research (Ethics approval number: G19-12-074). In each case, mice (n=3/group) were injected intravenously (i.v.) with 3 μg TransIT-complexed (Mirus Bio) EPO mRNAs in a final volume of 200 μL Dulbecco's modified Eagle medium (DMEM). Mice used as controls were injected with TransIT-reagent diluted in DMEM but without RNA. To measure hematocrits and EPO levels in the individual mice that were injected with EPO mRNA capped with I′-6, I′-1, CC114, and CC413 and complexed with TransIT-reagent, 18 μL of blood was collected at the indicated times (FIG. 8B) and centrifuged in Drummond microcaps glass capillary tubes (20 μl volume, Merck, Germany) as described (19). After determination of the hematocrit, capillary tubes were snapped open, and the plasma was collected to measure EPO levels and analyzed for mouse Erythropoietin DuoSet ELISA kit (R&D Systems) according to the manufacturer's instructions. […] EPO RNA containing m1Ψ modifications translated 2-3-fold, 5-fold, and 10-fold more than U-containing mRNAs at 6-24, 48 and 72 hours after injections, respectively. (FIG. 8A). […] To address translation of I′-6-capped mRNA in human primary hepatocytes, EPO level was measured from supernatants transfected using 0.1 μg/well TransIT-formulated I′-6- or CC114-capped uRNA (FIG. 13).
To this end, we generated U-containing as well as m1Ψ-modified EPO RNA capped with cap analogs which belong to either the non-ARCA (I′-13) or ARCA (I′-6) classes. Moreover, the latter ones contain 2′-OMe (I′-5) or 3′-OMe (I′-6) at the ribose of the m7G moiety. Three μg of TransIT-complexed EPO mRNA capped with nucleoside modification-containing NeoCaps I′-13, I′-5 and I′-6 cap analogs were injected into mice intravenously. After that EPO level of plasma collected from mice was measured at 6, 24 and 48 hours after administration to compare the translational activity of mRNA capped with NeoCaps with U-containing or m1Ψ-modified mRNA capped with non-modified ARCA 3′OMe I′-1.
Plasma EPO level of mice injected with 3 μg of each TransIT-complexed mRNA was determined using murine EPO-specific ELISA at 6, 24, 48 and 72 hours after intravenous administration. […]

[1] = system: human primary hepatocytes; experiment: EPO secretion in human primary hepatocytes transfected with TransIT-EPO mRNA (ELISA); assay type: cell-based
Experimental: To measure the translational efficiency of EPO mRNA capped with compound I′-1, compound I′-6, CC114, and CC413 in vitro, human primary hepatocytes were seeded into 96-well plates at a density of 2.5×10^4 cells per well and were transfected with mRNA samples (0.1 μg) complexed with TransIT reagent (Mirus Bio, Madison, WI, USA) in a final volume of 200 μL in InVitroGRO CP Medium (Sigma-Aldrich) supplemented with Thorpedo Antibiotic Mix (Sigma-Aldrich). To quantify EPO levels, the supernatant was collected at 1, 2, 3, 4, 5 and 6 day after transfection and EPO levels were analyzed by mouse Erythropoietin DuoSet ELISA kit (R&D Systems, Minneapolis, MN, USA) according to the manufacturer's instructions.
as §1
To test if various uridine (U) or pseudouridine (Ψ) derivatives of cap analogues can improve translation in human primary hepatocytes, we first measured EPO secretion after application of EPO-encoding Ψ-mRNA capped with compounds described herein analog bearing pseudouridine (I′-3) or CC413 (no modification). […] In addition, all tested modification bearing caps led to increase in EPO secretion at 24 h and 48 h when compared to the unmodified I′-1 (FIG. 16).

Compound: COC1C(OP(=O)(O)OC[C@H]2O[C@@H](c3cn(C)c(=O)[nH]c3=O)C(O)C2O)[C@@H](COP(=O)(O)OP(=O)([O-])OP(=O)(O)OC[C@H]2O[C@@H](n3c[n+](C)c4c(O)nc(N)nc43)C(O)C2OC)O[C@H]1n1cnc2c(N)ncnc21 (stereo partly shown) [I′-6, m^7G(^3′-OMe)pppA(2′-OMe)pm^1Ψ]
- 24-hour EPO values compared with 6-hour values (BALB/c mice; after IV injection): higher than the 6-hour values
- translation (plasma EPO) relative to CC413 (BALB/c mice; later time points): 2- to 3 fold
- translation (EPO level) relative to I′-1 (BALB/c mice; m1Ψ-modified mRNA capped with I′-6 vs U-containing mRNA capped with I′-1, each time point): 2-3 fold
- translation relative to unmodified I′-1 (BALB/c mice; m1Ψ-modified mRNA, 6-24 hours after administration): 2-3 fold
- translation relative to unmodified I′-1 (BALB/c mice; m1Ψ-modified mRNA, 48-72 hours after administration): 4-5 fold
- translation / plasma EPO level relative to CC413 (BALB/c mice; m1Ψ-modified mRNA, 48 and 72 h after injection, respectively): 1.5-3 fold
- performance compared with cap analogs with other modification (BALB/c mice; m1Ψ-modified mRNA, same capping efficiency): surpasses the performance of other cap analogs
- translation of ARCA analogs compared to non-ARCA caps CC114 and I′-13 (BALB/c mice; regardless of the RNA modification): significantly better
- plasma EPO compared with reference samples (I′-1, CC114, CC413) (BALB/c mice; regardless of the cap initiators): outperformed each reference sample
- translation (EPO secretion) compared to CC413 ([1]; 0.1 μg/well TransIT-EPO mRNA, 24 hrs): higher translation
- EPO secretion, I′-6- vs CC114-capped uRNA ([1]; 0.1 μg/well TransIT-formulated uRNA, 24 h, 48 h and 144 h): Increased secretion of EPO
- level of secreted EPO compared to other caps (I′-9, I′-12, I′-16) ([1]; 24 h): increased level
- translation compared to CC413 ([1]; m1Ψ-mRNA context): lower translation at later time points but in close to comparable translation
